Data published in patent US10640495B2, “Heterocycle derivatives having TrkA inhibitory activity” (Shionogi & Co., Ltd., priority 2015, dated 2020).

The compounds below were run against human TrkA (Homo sapiens (Human), UniProt P04629) (assay: Human TrkA inhibition assay (Test Example 2)). Details: Table 152, human TrkA inhibition; read-out: IC50_nM.
Type: biochemical
Description: Seven point five μL per well of human TrkA (PV3144, Lifetechnologies, final concentration: 1 nmol/L) suspended in the assay buffer (100 mmol/L 4-(2-hydroxyethyl)-1-piperazineethanesulfonic acid (HEPES), 10 mmol/L magnecium chloride, 0.003 vol % Brij-35, 0.004 vol % Tween20 and 1 mmol/L dithiothreitol (DTT)) was applied in a 384 well plate and the plate was pre-incubated for 15 min at room temperature with 0.4 μL of each compound (final concentration: 200 μmol/L-1 pmol/L) dissolved in DMSO. Then, fluorescent substrate (FL-peptide 27, 760424, PerkinElmer, final concentration: 1.5 μmol/L) and ATP (final concentration 500 μmol/L) dissolved in the assay buffer was added in each well. After the incubation of 120 min at 37° C., fifteen μL of termination buffer (100 mmol/L HEPES, 40 mmol/L ethylenediaminetetraacetic acid (EDTA), 10 mmol/L magnecium chloride, 0.003 vol % Brij-35, 0.004 vol % Tween20, 1 mmol/L DTT and 0.16 vol % Coating Reagent 3) was added in each well to stop the enzyme reaction. Fluorescent intensities (FI) of phosphorylated and non-phosphorylated fluorescent substrates were measured by LabChip EZReader II (Caliper LifeSciences, Inc.), and conversion ratio (CR) was calculated by the following formula-1. The CR in the well applied with DMSO alone was used as a negative control and the CR in the well without applying TrkA was used as a positive control. The inhibitory effect of each compound on TrkA phosphorylation was calculated by the following formula-2. CR (%)=(FI of phosphorylated substrate/(FI of phosphorylated substrate+FI of non-phosphorylated substrate))×100 (Formula-1) Phosphorylation inhibition (%)=(1−(CR with compound treatment−CR of positive control)/(CR of negative control−CR of positive control))×100 (Formula-2)
IC50 values (nmol/L) were determined by the logistic regression using the inhibition data in 10 points of 3-fold dilution series at a compound concentration range of 20 nmol/L to 1 pmol/L, or 10 points of 3-fold dilution series at the range of 2 μmol/L to 0.1 nmol/L, or 10 points of 3-fold dilution series at the range of 200 μmol/L to 10 nmol/L, or 15 points of 3-fold dilution series at the range of 200 μmol/L to 0.04 nmol/L.
The evaluation results of the compounds in the present invention are indicated as follows. IC50 values of 0 to 100 nM, 100 to 1000 nM and over 1000 nM were shown as “A”, “B” and “C”, respectively.

Chain of human TrkA (P04629 440-796): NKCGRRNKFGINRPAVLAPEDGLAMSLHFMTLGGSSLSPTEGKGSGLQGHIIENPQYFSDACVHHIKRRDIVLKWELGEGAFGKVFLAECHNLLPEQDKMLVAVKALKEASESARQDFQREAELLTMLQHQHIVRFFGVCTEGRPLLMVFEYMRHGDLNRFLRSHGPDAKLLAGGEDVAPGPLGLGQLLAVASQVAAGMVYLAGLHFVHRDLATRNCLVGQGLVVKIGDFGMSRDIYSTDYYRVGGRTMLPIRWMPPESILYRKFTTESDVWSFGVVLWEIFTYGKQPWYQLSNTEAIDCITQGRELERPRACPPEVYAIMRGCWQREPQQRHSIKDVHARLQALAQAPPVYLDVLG

Row | IC50 [nM] | SMILES
1 | < 100 | COCCC1C[C@@H](NC(=O)Nc2c(C)c(-c3ccc4c(cnn4C)c3)nn2-c2ccccc2)[C@H](c2ccccc2)O1 (some centres unmarked) [Compound I-11]
2 | > 1000 | COCCN1C[C@H](NC(=O)Nc2c(C)c(C3=CCN(C(C)=O)CC3)nn2-c2ccccc2)[C@@H](c2ccc(F)c(F)c2)O1 [Compound I-38]
3 | 100 to 1000 | Cc1c(-c2cnn(C)c2)nn(-c2ccccc2)c1NC(=O)N[C@@H]1CN(Cc2csnn2)O[C@H]1c1ccccc1 (racemic) [Compound I-2]
4 | < 100 | COCCN1C[C@@H](NC(=O)Nc2c(C)c(C3=CCN(C(=O)OC(C)(C)C)CC3)nn2-c2ccccc2)[C@H](c2ccnc(F)c2)O1 (racemic) [Compound I-41]
5 | < 100 | COCCN1C[C@@H](NC(=O)Nc2c(C)c(-c3cnc4nc(C)nn4c3)nn2-c2ccccc2)[C@H](c2ccc(F)c(F)c2)O1 (racemic) [Compound I-43]

Same assay, conditions: Table 153, human TrkA inhibition; read-out: IC50

Row | IC50 [nM] | SMILES
6 | < 100 | COCCN1C[C@@H](NC(=O)Nc2c(C)c(-c3cnc(N(C(=O)OC(C)(C)C)C4CC4)nc3)nn2-c2ccccc2)[C@H](c2ccnc(F)c2)O1 (racemic) [Compound I-120]
7 | < 100 | COCC[C@@H]1C[C@@H](NC(=O)Nc2c(C)c(C3=CCN(C(=O)OC(C)(C)C)CC3)nn2-c2ccccc2)[C@H](c2ccc(F)c(F)c2)O1 (racemic) [Compound I-54]
8 | < 100 | COCCN1C[C@@H](NC(=O)Nc2c(C)c(-c3cnc4cnn(C)c4c3)nn2-c2ccccc2)[C@H](c2ccnc(F)c2)O1 (racemic) [Compound I-63]
9 | < 100 | COCCN1C[C@@H](NC(=O)Nc2c(C)c(-c3cnc4c(c3)nnn4C)nn2-c2ccccc2)[C@H](c2ccc(F)cc2)O1 (racemic) [Compound I-118]
10 | < 100 | CCNC(=O)c1cc(-c2nn(-c3ccccc3)c(NC(=O)N[C@@H]3CN(CCOC)O[C@H]3c3ccnc(F)c3)c2C)cnc1OC (racemic) [Compound I-110]
11 | < 100 | COCCN1C[C@@H](NC(=O)Nc2c(C)c(-c3cc(CO)c(=O)n(C)c3)nn2-c2ccccc2)[C@H](c2ccc(F)c(F)c2)O1 (racemic) [Compound I-125]
12 | < 100 | COCCN1C[C@@H](NC(=O)Nc2c(C)c(-c3cnc(C)nc3)nn2-c2ccccc2)[C@H](c2cnc(Cl)s2)O1 (racemic) [Compound I-154]
13 | < 100 | CNC(=O)c1cc(-c2nn(-c3ccccc3)c(NC(=O)N[C@@H]3CN(CCOC)O[C@H]3c3ccc(F)c(F)c3)c2C)cn(C)c1=O (racemic) [Compound I-147]
14 | < 100 | COCCN1C[C@@H](NC(=O)Nc2c(C)c(-c3cnn(C)c3)nn2-c2ccc(F)c(F)c2)[C@H](c2ccc(F)c(F)c2)O1 (racemic) [Compound I-86]

Same assay, conditions: Table 154, human TrkA inhibition; read-out: IC50

Row | IC50 [nM] | SMILES
15 | < 100 | COCCN1C[C@@H](NC(=O)Nc2c(C)c(-c3ccnc(C(=O)O)c3)nn2-c2ccccc2)[C@H](c2cnc(F)c(F)c2)O1 [Compound I-213]
16 | < 100 | COCCN1C[C@@H](NC(=O)Nc2c(C)c(-c3cnc(OC)c(C(=O)NOCCF)c3)nn2-c2ccccc2)[C@H](c2ccnc(F)c2)O1 (racemic) [Compound I-261]
17 | < 100 | COCCN1C[C@@H](NC(=O)Nc2c(C)c(-c3cnc(OC)c(C(N)=O)c3)nn2-c2ccccc2)[C@H](c2cnc(F)c(F)c2)O1 [Compound I-180]
18 | < 100 | COCCN1C[C@@H](NC(=O)Nc2c(C)c(-c3cnc(S(C)(=O)=O)nc3)nn2-c2ccccc2)[C@H](c2ccnc(F)c2)O1 (racemic) [Compound I-270]
19 | < 100 | COCCN1C[C@@H](NC(=O)Nc2c(C)c(-c3cnc(C(N)=O)c(F)c3)nn2-c2ccccc2)[C@H](c2ccnc(F)c2)O1 (racemic) [Compound I-255]

Same assay, conditions: Table 155, human TrkA inhibition; read-out: IC50

Row | IC50 [nM] | SMILES
20 | < 100 | COCCN1C[C@@H](NC(=O)Nc2c(C)c(-c3cnc(COC)nc3)nn2-c2ccccc2)[C@H](c2cnc(F)c(F)c2)O1 [Compound I-512]
21 | < 100 | COCCN1C[C@@H](NC(=O)Nc2c(C)c(-c3cnc(N4CC(F)(F)C4)nc3)nn2-c2ccccc2)[C@H](c2ccnc(F)c2)O1 (racemic) [Compound I-481]
22 | < 100 | COCCN1C[C@@H](NC(=O)Nc2c(C)c(-c3cnc4c(c3)c(C(=O)NC3CCN(C)CC3)nn4C)nn2-c2ccccc2)[C@H](c2ccnc(F)c2)O1 (racemic) [Compound I-376]
23 | < 100 | COCCN1C[C@@H](NC(=O)Nc2c(C)c(-c3cnc4c(c3)nc(N3CCCC3)n4C)nn2-c2ccccc2)[C@H](c2ccnc(F)c2)O1 (racemic) [Compound I-398]
24 | < 100 | COCCN1C[C@@H](NC(=O)Nc2c(C)c(-c3cnc4c(c3)CN(C)CC4)nn2-c2ccccc2)[C@H](c2ccnc(F)c2)O1 (racemic) [Compound I-440]
25 | < 100 | COCCN1C[C@@H](NC(=O)Nc2c(C)c(-c3cnc(N4CCNCC4)nc3)nn2-c2ccccc2)[C@H](c2cc(F)nc(F)c2)O1 (racemic) [Compound I-415]
26 | < 100 | COCCN1C[C@@H](NC(=O)Nc2c(C)c(-c3ccc(=O)n(C)c3)nn2-c2ccccc2)[C@H](c2ccnc(F)c2)O1 (racemic) [Compound I-496]
27 | 100 to 1000 | COCCN1C[C@@H](NC(=O)Nc2c(C)c(Oc3ccnc(F)c3)nn2-c2ccccc2)[C@H](c2ccnc(F)c2)O1 (racemic) [Compound I-442]
28 | < 100 | COCCOc1ncc(-c2nn(-c3ccccc3)c(NC(=O)N[C@@H]3CN(CCOC)O[C@H]3c3ccnc(F)c3)c2C)cn1 (racemic) [Compound I-511]
29 | < 100 | COCCN1C[C@@H](NC(=O)Nc2c(C)c(-c3cnc(N4CCN(CC#N)CC4)nc3)nn2-c2ccccc2)[C@H](c2ccnc(F)c2)O1 (racemic) [Compound I-416]

Same assay, conditions: Table 156, human TrkA inhibition; read-out: IC50

Row | IC50 [nM] | SMILES
30 | < 100 | COCCN1C[C@@H](NC(=O)Nc2c(C)c(OC3CNC3)nn2-c2ccccc2)[C@H](c2ccc(F)c(F)c2)O1 [Compound I-574]
31 | < 100 | Cc1c(OCC2CCN(C)CC2)nn(-c2ccccc2)c1NC(=O)N[C@@H]1CN(CCF)O[C@H]1c1ccc(F)c(F)c1 (racemic) [Compound I-567]

Same assay, conditions: Table 157, human TrkA inhibition; read-out: IC50

Row | IC50 [nM] | SMILES
32 | 100 to 1000 | COCCN1C[C@@H](NC(=O)Nc2c(C(F)F)c(C)nn2-c2ccccc2)[C@H](c2ccnc(F)c2)O1 (racemic) [Compound I-673]
33 | < 100 | COCCN1C[C@@H](NC(=O)Nc2c(C)c(-c3cnc(N4C[C@@H]5C[C@H]4CO5)nc3)nn2-c2ccccc2)[C@H](c2ccnc(F)c2)O1 [Compound I-591]
34 | < 100 | COCCN1C[C@@H](NC(=O)Nc2c(C)c(-c3ccnc(CN(C)C)c3)nn2-c2ccccc2)[C@H](c2ccc(F)c(F)c2)O1 [Compound I-618]
35 | < 100 | CCN1C[C@@H](NC(=O)Nc2c(C)c(OCC(=O)N(C)C)nn2-c2ccccc2)[C@H](c2ccc(F)c(F)c2)O1 (racemic) [Compound I-647]

Same assay, conditions: human TrkA 1 nmol/L, ATP 500 μmol/L, 120 min at 37° C.; read-out: IC50 values (TrkA phosphorylation inhibition)

Row | IC50 [nM] | SMILES
36 | 5.3 | COCCN1C[C@@H](NC(=O)Nc2c(C)c(-c3cnc(C(N)=O)c(C)c3)nn2-c2ccccc2)[C@H](c2ccnc(F)c2)O1 (racemic) [Compound I-165]
37 | 120 | CCN1C[C@@H](NC(=O)Nc2c(C)c(-c3cnn(C)c3)nn2-c2ccccc2)[C@H](c2ccccc2)O1 (racemic) [Compound I-3]
38 | 0.52 | COCCN1C[C@@H](NC(=O)Nc2c(C)c(-c3cnc(OC)c(CN(C)C)c3)nn2-c2ccccc2)[C@H](c2ccc(F)c(F)c2)O1 [Compound I-639]
39 | 0.97 | COCCN1C[C@@H](NC(=O)Nc2c(C)c(N3CCN(C)C(=O)C3)nn2-c2ccccc2)[C@H](c2ccc(F)c(F)c2)O1 [Compound I-344]
40 | 1.5 | COCCN1C[C@@H](NC(=O)Nc2c(C)c(-c3cnc4c(c3)c(=O)n(C)n4C)nn2-c2ccccc2)[C@H](c2cnc(F)c(F)c2)O1 (racemic) [Compound I-79]
41 | 8.2 | CNC(=O)c1cc(-c2nn(-c3ccccc3)c(NC(=O)N[C@@H]3CN(CCOC)O[C@H]3c3ccnc(F)c3)c2C)nn(C)c1=O (racemic) [Compound I-302]
42 | 1.4 | CCN1CCC(NC(=O)c2ccc(-c3nn(-c4ccccc4)c(NC(=O)N[C@@H]4CN(CCOC)O[C@H]4c4ccc(F)c(F)c4)c3C)cc2)CC1 (racemic) [Compound I-36]
43 | 4 | COCCN1C[C@@H](NC(=O)Nc2c(C)c(-c3cnc(OCC(F)F)nc3)nn2-c2ccccc2)[C@H](c2ccnc(F)c2)O1 (racemic) [Compound I-436]
44 | 4 | COCCN1C[C@@H](NC(=O)Nc2c(C)c(-c3cnc(OC)nc3)nn2-c2ccccc2)[C@H](c2ccnc(F)c2)O1 (racemic) [Compound I-119]
